# Experimental data taken from article PMC10855341, “Inhibition of Apoptosis in a Model of Ischemic Stroke Leads to Enhanced Cell Survival, Endogenous Neural Precursor Cell Activation and Improved Functional Outcomes” (International Journal of Molecular Sciences, 2024).
# System: neural precursor cells (NPCs) from SVZ neurospheres
# Assay: In vitro NPC cell viability with cisplatin (DAPI+ counts)
# Format: cell-based, adult mice (C57BL/6)
# Settings: 20 µM cisplatin alone, 8 h; mean ± SEM, n = 3 independent experiments
# Experimental: NSC neurospheres were obtained from control […] C57BL/6 periventricular dissections, as described above. Neurospheres were collected and mechanically disassociated into single cells and plated in 96-well plates coated with 4% Matrigel (Corning 354234, Corning, NY, USA) at a density of 20,000 cells per well in 100 µL of SFM with […] epidermal growth factor (GIBCO, PMG8041, Waltham, MA, USA), […] basic fibroblast growth factor (GIBCO, PHG0266, Waltham, MA, USA) and 2 µg/mL heparin (Sigma-Aldrich, H3149, St. Louis, MO, USA) (referred to as growth factors). One day later, the media was removed and replaced with fresh SFM, growth factors, 20 µM cisplatin (Sigma-Aldrich, P4394, St. Louis, MO, USA) and 10 µM NWL283 (New World Laboratories, Laval, QC, Canada) in sterile PBS. The vehicle group received media containing SFM, growth factors and PBS.
# To assess cell viability at 2 h and 8 h, cells were fixed with 4% PFA for 15 min and washed three times for 5 min in PBS. Cells were incubated for 10 min with 1:10,000 DAPI (Invitrogen, D130, Waltham, MA, USA), then washed three times for 5 min in PBS and imaged on an Axio Observer Zeiss microscope. DAPI cells were counted using ImageJ (https://imagej.net/ij/) analyze particle detection and then manually confirmed. Data were collected from three independent experiments.
smiles,measurement,value
N.N.[Cl][Pt][Cl] [cisplatin],"cell survival, DAPI+ cells",49.09 ± 7.28 DAPI+ cells
